Laboratory results from ChEMBL document CHEMBL4346703, “Structure Overhaul Affords a Potent Purine PI3Kδ Inhibitor with Improved Tolerability” (J Med Chem, 2019).
pIC50: −log10 of the molar value.

Legend:
Rattus norvegicus [1] = test: Hemodynamic activity in telemetered rat assessed as effect on heart rate at 60 mg/kg; format: ADME, organism-based; settings: in vivo
[2] = Protein binding in Beagle dog plasma; format: ADME, cell-free, Canis lupus familiaris; settings: read-out: PPB (converted)
[3] = Intrinsic clearance in Beagle dog at 0.25 mg/kg, iv or 0.5 mg/kg, po; format: ADME, organism-based, Canis lupus familiaris; settings: in vivo
[4] = Half-life in Beagle dog; format: ADME, Canis lupus familiaris; settings: in vivo
[5] = fCmax in rat at 750 mg/kg administered for 4 days; format: ADME, organism-based; settings: in vivo, 96 h
[6] = Solubility of the compound; format: physicochemical
[7] = Oral bioavailability in Wistar Han rat; format: ADME, organism-based; settings: in vivo
[8] = fCmax in telemetered rat at 60 mg/kg; format: ADME, organism-based; settings: in vivo
[9] = Lipophilicity, log D of the compound; format: physicochemical; settings: octanol/water
[10] = Unbound volume of distribution in Beagle dog; format: ADME, Canis lupus familiaris; settings: in vivo
[11] = fAUC in telemetered rat at 60 mg/kg; format: ADME, organism-based; settings: in vivo
Phosphodiesterase 6 = test: Inhibition of PDE6 (unknown origin); format: protein assay, Homo sapiens
[12] = fAUC in Beagle dog at 25 mg/kg administered for 8 days; format: ADME, organism-based, Canis lupus familiaris; settings: in vivo, 192 h
[13] = target: High affinity cAMP-specific and IBMX-insensitive 3',5'-cyclic phosphodiesterase 8A (Homo sapiens, UniProt O60658); test: Inhibition of PDE8 (unknown origin)
Sequence of High affinity cAMP-specific and IBMX-insensitive 3',5'-cyclic phosphodiesterase 8A (O60658 whole entry): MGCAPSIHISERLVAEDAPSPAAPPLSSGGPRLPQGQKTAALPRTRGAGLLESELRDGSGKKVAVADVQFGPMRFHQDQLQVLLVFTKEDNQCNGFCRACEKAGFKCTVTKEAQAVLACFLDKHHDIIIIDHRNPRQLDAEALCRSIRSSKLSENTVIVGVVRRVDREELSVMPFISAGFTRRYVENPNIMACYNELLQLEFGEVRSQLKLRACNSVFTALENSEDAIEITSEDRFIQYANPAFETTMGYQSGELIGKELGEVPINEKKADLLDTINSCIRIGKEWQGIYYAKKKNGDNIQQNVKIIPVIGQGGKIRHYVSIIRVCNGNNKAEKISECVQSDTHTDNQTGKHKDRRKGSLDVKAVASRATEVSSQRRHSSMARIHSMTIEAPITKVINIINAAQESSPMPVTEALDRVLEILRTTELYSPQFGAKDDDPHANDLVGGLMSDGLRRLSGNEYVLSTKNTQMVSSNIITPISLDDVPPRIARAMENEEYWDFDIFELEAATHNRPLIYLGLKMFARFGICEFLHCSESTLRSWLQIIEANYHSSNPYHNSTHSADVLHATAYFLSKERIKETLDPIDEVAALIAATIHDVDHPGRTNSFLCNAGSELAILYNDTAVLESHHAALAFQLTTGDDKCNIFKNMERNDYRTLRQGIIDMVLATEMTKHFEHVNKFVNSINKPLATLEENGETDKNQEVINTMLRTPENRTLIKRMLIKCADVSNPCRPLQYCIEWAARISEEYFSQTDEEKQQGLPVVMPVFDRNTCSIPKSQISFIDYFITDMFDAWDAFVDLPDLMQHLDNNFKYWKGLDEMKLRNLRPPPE

[14] = fCmax in Beagle dog at 25 mg/kg administered for 8 days; format: ADME, organism-based, Canis lupus familiaris; settings: in vivo, 192 h
[15] = Drug recovery in rat urine after 24 hrs; format: ADME; settings: read-out: Drug recovery
[16] = Toxicity in Beagle dog assessed as decrease in basophil count at 25 mg/kg administered for 8 days; format: organism-based, Canis lupus familiaris; settings: in vivo, 192 h
[17] = Intrinsic clearance in rat microsomes; format: ADME, Microsome
[18] = target: PI3-kinase p110-alpha/p85-alpha (Homo sapiens, UniProt P42336); test: Inhibition of N-terminal His6-tagged recombinant full length human p110alpha/untagged recombinant full length human p85alpha expressed in baculovirus infected Sf21 insect cells using PIP2 as substrate preincubated for 15 mins followed by substrate addition and measured after 1 hr by HTRF assay
Sequence of PI3-kinase p110-alpha/p85-alpha (P27986 whole entry): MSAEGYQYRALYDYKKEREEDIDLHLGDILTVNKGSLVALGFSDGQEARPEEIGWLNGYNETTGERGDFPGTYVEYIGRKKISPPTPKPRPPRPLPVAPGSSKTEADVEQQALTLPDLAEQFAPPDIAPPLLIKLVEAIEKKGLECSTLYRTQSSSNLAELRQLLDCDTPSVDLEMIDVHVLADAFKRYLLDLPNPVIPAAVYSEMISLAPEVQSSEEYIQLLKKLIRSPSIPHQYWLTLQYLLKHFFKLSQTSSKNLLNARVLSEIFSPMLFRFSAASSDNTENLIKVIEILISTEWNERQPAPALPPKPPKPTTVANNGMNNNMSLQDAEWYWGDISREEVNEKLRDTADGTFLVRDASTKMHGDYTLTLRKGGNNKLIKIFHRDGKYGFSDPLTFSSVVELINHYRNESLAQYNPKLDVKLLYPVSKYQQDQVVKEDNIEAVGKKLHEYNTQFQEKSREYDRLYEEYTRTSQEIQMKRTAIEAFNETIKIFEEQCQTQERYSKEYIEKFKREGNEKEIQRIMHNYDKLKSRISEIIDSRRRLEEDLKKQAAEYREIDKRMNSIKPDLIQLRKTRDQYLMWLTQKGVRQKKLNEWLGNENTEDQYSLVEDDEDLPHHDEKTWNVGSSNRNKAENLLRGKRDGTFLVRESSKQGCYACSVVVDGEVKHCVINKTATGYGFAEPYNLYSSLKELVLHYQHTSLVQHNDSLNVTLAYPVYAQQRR
Sequence of PI3-kinase p110-alpha/p85-alpha (P42336 whole entry): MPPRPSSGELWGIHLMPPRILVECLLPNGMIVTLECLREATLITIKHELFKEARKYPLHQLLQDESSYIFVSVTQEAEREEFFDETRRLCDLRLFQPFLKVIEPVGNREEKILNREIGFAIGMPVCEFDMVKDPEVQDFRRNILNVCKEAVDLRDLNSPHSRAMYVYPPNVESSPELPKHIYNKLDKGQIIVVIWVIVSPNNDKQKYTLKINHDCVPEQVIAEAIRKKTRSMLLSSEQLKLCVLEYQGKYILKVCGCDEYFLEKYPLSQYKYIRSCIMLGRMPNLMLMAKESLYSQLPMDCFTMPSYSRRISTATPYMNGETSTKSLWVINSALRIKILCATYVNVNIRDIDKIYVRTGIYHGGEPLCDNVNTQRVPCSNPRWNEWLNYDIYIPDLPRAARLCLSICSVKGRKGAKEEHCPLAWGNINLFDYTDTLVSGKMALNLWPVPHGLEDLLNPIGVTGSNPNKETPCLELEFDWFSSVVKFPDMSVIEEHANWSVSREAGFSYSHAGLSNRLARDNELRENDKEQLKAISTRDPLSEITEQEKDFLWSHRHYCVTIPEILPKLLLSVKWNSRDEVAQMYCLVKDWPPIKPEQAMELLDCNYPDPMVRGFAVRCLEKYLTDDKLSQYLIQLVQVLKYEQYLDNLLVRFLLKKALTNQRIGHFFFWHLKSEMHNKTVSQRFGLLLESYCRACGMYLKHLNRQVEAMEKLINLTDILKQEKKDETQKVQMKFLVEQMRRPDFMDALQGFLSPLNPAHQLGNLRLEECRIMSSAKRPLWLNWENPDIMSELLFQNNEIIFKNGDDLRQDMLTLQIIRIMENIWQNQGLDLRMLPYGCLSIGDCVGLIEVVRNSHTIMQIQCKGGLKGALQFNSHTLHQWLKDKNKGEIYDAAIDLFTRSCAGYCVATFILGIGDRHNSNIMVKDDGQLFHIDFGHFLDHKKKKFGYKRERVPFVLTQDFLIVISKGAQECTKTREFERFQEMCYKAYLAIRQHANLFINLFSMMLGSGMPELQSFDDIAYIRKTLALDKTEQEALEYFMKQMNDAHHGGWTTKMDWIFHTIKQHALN

Phosphodiesterase 4 = Phosphodiesterase 4 (Homo sapiens, UniProt P27815+Q08499+Q07343+Q08493); test: Inhibition of PDE4 (unknown origin); format: protein assay
[19] = Plasma clearance in Beagle dog at 0.25 mg/kg, iv or 0.5 mg/kg, po; format: ADME, organism-based, Canis lupus familiaris
Homo sapiens [20] = species: Homo sapiens; test: (§1) Selectivity ratio of IC50 for N-terminal His6-tagged recombinant full length human p110beta/untagged recombinant full length human p85alpha expressed in baculovirus infected Sf21 insect cells to N-terminal His6-tagged recombinant full length human p110delta/untagged recombinant full length human p85alpha expressed in baculovirus infected Sf21 insect cells
Rattus norvegicus [21] = test: Hemodynamic activity in telemetered rat assessed as effect on arterial blood pressure at 60 mg/kg; format: ADME, organism-based; settings: in vivo
[22] = Protein binding in human plasma; format: ADME, cell-free; settings: read-out: PPB (converted)
[23] = Protein binding in Wistar Han rat plasma; format: ADME, cell-free; settings: read-out: PPB (converted)
[24] = Volume of distribution in Beagle dog; format: ADME, Canis lupus familiaris; settings: in vivo
Homo sapiens [25] = species: Homo sapiens; test: as §1, with “p110alpha/untagged” for “p110beta/untagged”, “to IC50 for” for “to”
Phosphodiesterase 1 = Phosphodiesterase 1 (Homo sapiens, UniProt P54750+Q01064+Q14123); test: Inhibition of PDE1 (unknown origin); format: protein assay
[26] = target: cGMP-dependent 3',5'-cyclic phosphodiesterase (Homo sapiens, UniProt O00408); test: Inhibition of PDE2 (unknown origin)
Sequence of cGMP-dependent 3',5'-cyclic phosphodiesterase (O00408 whole entry): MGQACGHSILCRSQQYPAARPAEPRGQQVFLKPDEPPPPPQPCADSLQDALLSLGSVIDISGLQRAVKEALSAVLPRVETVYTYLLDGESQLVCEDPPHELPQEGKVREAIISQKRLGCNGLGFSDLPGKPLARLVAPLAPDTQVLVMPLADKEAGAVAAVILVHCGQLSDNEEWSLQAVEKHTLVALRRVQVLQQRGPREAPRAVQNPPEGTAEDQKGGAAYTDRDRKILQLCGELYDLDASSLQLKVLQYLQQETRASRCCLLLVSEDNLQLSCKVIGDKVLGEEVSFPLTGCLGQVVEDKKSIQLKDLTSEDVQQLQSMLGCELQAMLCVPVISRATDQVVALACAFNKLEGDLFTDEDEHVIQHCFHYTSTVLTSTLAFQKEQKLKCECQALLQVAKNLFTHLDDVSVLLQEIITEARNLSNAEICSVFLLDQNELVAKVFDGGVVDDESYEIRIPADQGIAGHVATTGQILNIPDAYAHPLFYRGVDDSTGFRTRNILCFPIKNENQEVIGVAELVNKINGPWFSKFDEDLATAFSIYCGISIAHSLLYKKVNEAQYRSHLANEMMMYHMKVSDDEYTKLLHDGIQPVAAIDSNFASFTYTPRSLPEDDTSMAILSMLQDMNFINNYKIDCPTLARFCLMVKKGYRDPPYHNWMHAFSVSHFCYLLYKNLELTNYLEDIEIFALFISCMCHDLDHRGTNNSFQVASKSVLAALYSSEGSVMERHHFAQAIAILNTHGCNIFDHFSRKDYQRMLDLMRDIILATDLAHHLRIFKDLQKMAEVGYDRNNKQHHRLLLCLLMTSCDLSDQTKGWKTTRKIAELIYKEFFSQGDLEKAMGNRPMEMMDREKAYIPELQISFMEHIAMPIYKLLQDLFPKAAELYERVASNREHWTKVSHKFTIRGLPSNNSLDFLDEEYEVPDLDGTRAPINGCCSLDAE

[27] = target: High affinity cGMP-specific 3',5'-cyclic phosphodiesterase 9A (Homo sapiens, UniProt O76083); test: Inhibition of PDE9 (unknown origin)
Sequence of High affinity cGMP-specific 3',5'-cyclic phosphodiesterase 9A (O76083 whole entry): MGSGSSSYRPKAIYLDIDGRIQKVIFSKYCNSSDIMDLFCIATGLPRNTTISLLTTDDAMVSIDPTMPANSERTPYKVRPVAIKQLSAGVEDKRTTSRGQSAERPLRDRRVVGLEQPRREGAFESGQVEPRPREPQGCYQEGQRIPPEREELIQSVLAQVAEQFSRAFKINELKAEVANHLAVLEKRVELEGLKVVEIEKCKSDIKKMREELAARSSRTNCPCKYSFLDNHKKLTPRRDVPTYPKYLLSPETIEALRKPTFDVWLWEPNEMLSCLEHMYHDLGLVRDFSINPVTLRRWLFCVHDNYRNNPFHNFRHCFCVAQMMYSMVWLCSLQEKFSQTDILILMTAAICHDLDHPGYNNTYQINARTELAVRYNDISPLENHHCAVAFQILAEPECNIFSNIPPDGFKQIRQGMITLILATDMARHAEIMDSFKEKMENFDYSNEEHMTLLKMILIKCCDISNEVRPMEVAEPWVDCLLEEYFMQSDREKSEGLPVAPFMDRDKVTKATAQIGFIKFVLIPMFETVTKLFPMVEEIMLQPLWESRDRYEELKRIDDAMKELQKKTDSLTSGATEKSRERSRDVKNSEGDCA

[28] = Unbound volume of distribution in Wistar Han rat; format: ADME; settings: in vivo
[29] = Volume of distribution in Wistar Han rat; format: ADME; settings: in vivo
[30] = Toxicity in Beagle dog assessed as decrease in RBC count at 25 mg/kg administered for 8 days; format: organism-based, Canis lupus familiaris; settings: in vivo, 192 h
[31] = Plasma clearance in Wistar Han rat at 0.5 mg/kg, iv or 1 mg/kg, po; format: ADME, organism-based
[32] = target: T1, Phosphatidylinositol 4,5-bisphosphate 3-kinase catalytic subunit delta isoform (Homo sapiens, UniProt O00329); test: Inhibition of PI3Kdelta in human Ramos cells assessed as reduction in anti-IgM-antibody-induced phosphorylation of AKT at Ser473 residue preincubated for 20 mins followed by anti-IgM antibody stimulation and measured after 30 mins by alphascreen assay; format: cell-based
T1 sequence (O00329 whole entry): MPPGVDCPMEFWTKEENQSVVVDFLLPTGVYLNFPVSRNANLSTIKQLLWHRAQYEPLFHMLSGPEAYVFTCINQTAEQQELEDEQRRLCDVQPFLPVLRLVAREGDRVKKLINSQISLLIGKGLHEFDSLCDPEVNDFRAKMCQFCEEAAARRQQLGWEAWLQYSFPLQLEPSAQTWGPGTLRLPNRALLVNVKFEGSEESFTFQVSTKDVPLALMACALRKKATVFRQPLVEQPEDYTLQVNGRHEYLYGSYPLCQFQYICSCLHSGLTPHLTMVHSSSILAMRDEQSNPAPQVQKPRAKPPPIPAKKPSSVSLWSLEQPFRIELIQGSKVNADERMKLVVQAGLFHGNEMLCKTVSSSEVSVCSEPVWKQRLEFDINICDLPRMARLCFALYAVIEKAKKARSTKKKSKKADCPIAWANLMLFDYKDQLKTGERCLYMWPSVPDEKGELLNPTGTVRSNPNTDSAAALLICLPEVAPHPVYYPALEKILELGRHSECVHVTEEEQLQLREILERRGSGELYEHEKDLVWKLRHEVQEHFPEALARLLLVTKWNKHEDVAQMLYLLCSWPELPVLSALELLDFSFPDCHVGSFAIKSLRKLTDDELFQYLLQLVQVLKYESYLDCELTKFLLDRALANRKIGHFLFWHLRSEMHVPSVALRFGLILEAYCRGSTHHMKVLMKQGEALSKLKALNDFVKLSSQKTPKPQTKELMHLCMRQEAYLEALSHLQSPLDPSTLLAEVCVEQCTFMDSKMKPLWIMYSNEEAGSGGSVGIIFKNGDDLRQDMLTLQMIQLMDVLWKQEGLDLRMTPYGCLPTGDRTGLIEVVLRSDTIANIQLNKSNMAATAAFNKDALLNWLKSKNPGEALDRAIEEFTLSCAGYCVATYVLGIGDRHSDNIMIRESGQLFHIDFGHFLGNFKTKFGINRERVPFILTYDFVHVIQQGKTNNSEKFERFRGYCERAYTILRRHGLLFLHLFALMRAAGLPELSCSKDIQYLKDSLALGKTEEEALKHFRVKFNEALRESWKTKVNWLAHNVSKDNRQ

[33] = Cardiovascular toxicity in rat assessed as vascular injury at 750 mg/kg for 4 days; format: organism-based; settings: in vivo, 96 h
[34] = Oral bioavailability in Beagle dog; format: ADME, organism-based, Canis lupus familiaris; settings: in vivo
[35] = Intrinsic clearance in Wistar Han rat at 0.5 mg/kg, iv or 1 mg/kg, po; format: ADME, organism-based; settings: in vivo
Phosphodiesterase 7 = Phosphodiesterase 7 (Homo sapiens, UniProt Q13946+Q9NP56); test: Inhibition of PDE7 (unknown origin); format: protein assay
Canis familiaris = test: Hemodynamic activity in Beagle dog at 25 mg/kg administered for 8 days; format: ADME, organism-based, Canis lupus familiaris; settings: in vivo, 192 h

CCn1ncc(-c2nc3c(O[C@H]4CCN(C(=O)C5CCOCC5)C4)ncnc3n2C)c1C
Activity (Rattus norvegicus [1]): Non-Toxic
fraction unbound [2]: 0.74
CL [3]: 10 mL/min/kg
half-life [4]: 1.5 h
fCmax [5]: 200 µM
solubility [6]: > 10000 µg/mL
bioavailability [7]: 55%
fCmax [8]: 44 µM
logD [9]: 1.1
Vdu [10]: 3 L/kg
fAUC [11]: 61 µM·h
IC50 (Phosphodiesterase 6): > 50 µM
fAUC [12]: 222 µM·h
pIC50 [13]: < 4.30
fCmax [14]: 46 µM
dose excreted at 24 h [15]: 17%
Activity [16]: Non-Toxic
CLint scaled [17]: < 110 mL/min/kg
pIC50 [18]: 6.57
IC50 (Phosphodiesterase 4): > 50 µM
clearance [19]: 5.8 mL/min/kg
Ratio IC50 (Homo sapiens [20]): 1400
Activity (Rattus norvegicus [21]): Non-Toxic
fraction unbound [22]: 0.83
fraction unbound [23]: 0.73
Vd [24]: 0.9 L/kg
Ratio IC50 (Homo sapiens [25]): 69
IC50 (Phosphodiesterase 1): > 50 µM
pIC50 [26]: < 4.30
pIC50 [27]: < 4.30
Vdu [28]: 2 L/kg
Vd [29]: 1.2 L/kg
Activity [30]: Non-Toxic
clearance [31]: 41 mL/min/kg
pIC50 [32]: 7.21
Activity [33]: Non-Toxic
bioavailability [34]: 100%
CL [35]: 126 mL/min/kg
IC50 (Phosphodiesterase 7): > 50 µM
Activity (Canis familiaris): Non-Toxic
